Results reported in patent US20260356814A1, “INDOLINE DERIVATIVES AS SEROTONERGIC AGENTS USEFUL FOR THE TREATMENT OF DISORDERS RELATED THERETO” (MINDSET PHARMA INC., priority 2022, published 2026).

Experiments:
[1] = target: T1, human 5-HT2A (h5-HT2A) receptor (Homo sapiens, UniProt P28223); experiment: FLIPR assay: human 5-HT2A (agonist mode); assay type: cell-based; settings: for RFU@10 μM: @10 μM (head), footnote: curve fitting with activation (%) @ 10 mM with RFU, RFU=Fmax−Fmin; for EC50: FLIPR calcium, agonist mode, HTR2A&Gα15-HEK293 cells, ND: not detected
T1 construct: expressed in transfected cells; host or cells: HEK293 (HTR2A&Ga15-HEK293, tetracycline-induced)
T1 sequence (P28223 whole entry): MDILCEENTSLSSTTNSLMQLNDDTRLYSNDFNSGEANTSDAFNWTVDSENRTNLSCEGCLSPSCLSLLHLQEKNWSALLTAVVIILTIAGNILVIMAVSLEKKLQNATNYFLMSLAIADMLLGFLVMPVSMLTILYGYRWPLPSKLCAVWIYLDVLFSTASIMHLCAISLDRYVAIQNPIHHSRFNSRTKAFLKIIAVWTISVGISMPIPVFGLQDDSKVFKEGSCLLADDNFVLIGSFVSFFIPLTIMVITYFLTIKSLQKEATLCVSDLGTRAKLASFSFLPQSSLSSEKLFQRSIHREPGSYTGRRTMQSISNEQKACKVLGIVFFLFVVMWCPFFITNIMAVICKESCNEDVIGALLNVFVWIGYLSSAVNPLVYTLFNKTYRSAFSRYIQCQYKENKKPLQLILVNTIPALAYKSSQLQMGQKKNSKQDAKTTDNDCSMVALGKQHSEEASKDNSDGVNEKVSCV
Method: Assessment of the effect of exemplary compounds of Formula I targeting on human 5-HT2A (h5-HT2A) receptor under agonist mode.
HTR2A&Ga15-HEK293 cells were cultured in DMEM medium containing 10% dialyzed FBS and 1x penicillin-streptomycin, 100 μg/mL Hygromycin B and 300 μg/mL G418. The cells were passaged about three times a week, maintained between ~30% to ~90% confluence.
• 1. The cell culture medium (DMEM medium containing 10% dialyzed FBS and 1× penicillin-streptomycin, 100 μg/mL Hygromycin B and 300 μg/mL G418), TrypLE™ Express and DPBS to R.T. was warmed in advance. • 2. For induction, 1 μg/ml tetracycline (final concentration) was added to cell culture medium and incubated for 48 hours prior to seeding cells into plate at 37° C., 5% (v/v) CO2. The cell culture medium was removed from flask. Cells were washed with DPBS. • 3. 2 mL TrypLE™ Express was added to the flask, mixed well by gentle shaking and cells were incubated at 37° C. for a few minutes. • The cells were checked for morphological change under microscope, the digestion was stopped by adding 4 mL cell culture medium to the flask when most of cells turned to round. • 5. The cell suspension was transferred into a 15 mL centrifuge tube, and then centrifuged at 1,200 rpm for 5 minutes. • 6. The supernatant was removed. The cell pellet was resuspended with 2 mL cell culture medium. • 7. The cell density was counted using cell counter. Only cells with >85% viability were used for the assay. • 8. Cells were diluted to 6.67×10^5/mL with cell culture medium. • 9. 30 μL/well cell suspensions added into a 384-well cell plate (The cell density was 20,000 cells/well). • 10. The cell plate was incubated overnight at 37° C., 5% (v/v) CO2. 2.3 Cell handling • 1. On the day of experiments, culture medium was removed from the cell plate. • 2. 10 μL of assay buffer (20 mM HEPES, in 1×HBSS, pH 7.4) was added to each well of the cell plate. • 3. 2×dye solution was prepared following the manual of the FLIPR® Calcium 6 Assay Kit: • i. The dye was diluted with assay buffer. • ii. Probenecid was added to the final concentration of 5 mM. • iii. Vortexed vigorously for 1-2 minutes. • 4. 10 μL of 2× dye solution was added to each well of the cell plate • 5. The cell plate was placed on plate shaker, followed by shaking at 600 rpm for 2 minutes. • 6. The plate was incubated at 37° C. for 2 hours followed by an additional 15-minute incubation at 25° C. 2.4 Prepare 3×compound • 1. Serotonin HCl was prepared to the concentration of 10 mM with DMSO. • 2. The test compounds were prepared to the concentration of 10 mM with DMSO. • 3. The compounds were added to a 384-well compound source plate. • 4. 3-folds serial dilutions were performed with DMSO. • 5. 90 nL/well of serial diluted compounds was transferred from source plate to a 384-well compound plate by using an Echo. • 6. 30 μL/well of assay buffer (20 mM HEPES in 1x HBSS, pH 7.4) was added to the compound plate. • 7. The plate was mixed on-plate shaker for 2 minutes.
• 1. After the cells were incubated with dye solution, the cell plate, compound plate containing 3×compounds and FLIPR tips were placed into FLIPR. • 2. 10 μL of 3×compounds transferred from the compound plate to the cell plate by FLIPR. • 3. The plate was read for 160 sec with 1 sec interval and the data of agonist mode was obtained.
• 1. The normalized fluorescence reading (RFU) was calculated as shown below, wherein Fmax and Fmin stand for maximum and minimum of calcium signal during defined time window:
RFU=Fmax−Fmin • 2. EC50 by fitting RFU against log of compound concentrations with Hill equation was calculated using XLfit.
The following procedure can also be followed: • 1. Cells are cultured in cell culture medium (DMEM containing 10% FBS, 1× penicillin-streptomycin 300 μg/ml G418 and 100 μg/ml hygromycin B) at 37° C., 5% (v/V) CO2. • 2. One day before the assays, the cells are detached using TrypLE™ Express and cells are counted using cell counter.

human 5-HT2A receptor = human 5-HT2A receptor (Homo sapiens, UniProt P28223); experiment: Human 5-HT2A: Radioligand binding assay ([3H]-ketanserin); settings: [3H]-ketanserin displacement, 27° C., 90 min, pH 7.4; read-out: h5-HT2A, IC50
human 5-HT2A receptor, sequence (P28223 whole entry): as above
Method: Exemplary compounds of Formula I were evaluated functionally using FLIPR assay for their effect on h5-HT2A receptor under agonist mode. The objective of this study was to evaluate the binding properties of exemplary compounds of Formula I on 5-hydroxytryptamine receptor 2A (5-HT2A). • Human 5-HT2A: Radioligand binding assay:
• i. The assay buffer was prepared following the table below.
• Adjust pH to 7.4 followed by […] sterile filtration • ii. 8 doses of reference and test compounds starting from 10 mM stock solution as required was prepared by 5-fold serial dilutions with 100% (v/v) DMSO. • iii. UniFilter-96 GF/B plate was pretreated: • a. 50 μl/well of 0.5% (v/v) PEI was added to UniFilter-96 […] plates. The plates were sealed and incubated at 4° C. for 3 hrs. • b. After incubation, the plates were washed 3 times with ice-cold wash buffer (50 mM Tris, pH7.4). • iv. The assay plate was prepared: • a. Cell membrane was diluted with assay buffer and 330 μl/well was added to 96 round deep well plates to reach a concentration of 20 μg/well. • b. 8 concentrations of reference or test compounds were prepared and 110 μl/well was added to 96 round deep well plates. • c. [3H]-ketanserin was diluted with assay buffer to 5 nM (5X final concentration) and 110 μl/well was added to 96 round deep well plates. • v. The plate was centrifuged at 1000 rpm for 30 secs and then agitated at 600 rpm, R.T. for 5 min. • vi. The plates were sealed and the plate incubated at 27° C. for 90 min. • vii. The incubation was stopped by vacuum filtration onto GF/B filter plates followed by 4 times washing with ice-cold wash buffer (50 mM Tris, pH7.4). • viii. The plates were dried at 37° C. for 45 min. • ix. The filter plates were sealed and 40 μl/well of scintillation cocktail was added. • x. The plate was read by using a Microbeta2 microplate counter.
• 1. For reference and test compounds, the results were expressed as % Inhibition, using the normalization equation: N=100−100×(U−C2)/(C1-C2), where U is the unknown value, C1 is the average of high controls, and C2 is the average of low controls. • 2. The IC50 was determined by fitting percentage of inhibition as a function of compound concentrations with Hill equation using XLfit.

`COc1cc2c(cc1OC)N(C[C@H]1CCCN1C)CC2` [(R)-I-34, (R)-5,6-dimethoxy-1-((1-methylpyrrolidin-2-yl)methyl) indoline] was tested, and the “RFU@10 μM” value [1] was 268 RFU and the IC50 (human 5-HT2A receptor) was greater than 30 µM.

For `[2H]C([2H])([2H])Oc1ccc2c(c1)N(C([2H])([2H])[C@H]1CCCN1C([2H])([2H])[2H])CC2` [(R)-I-28, (R)-6-(Methoxy-d3)-1-((1-(methyl-d3)pyrrolidin-2-yl)methyl-d2) indoline], the “RFU@10 μM” value [1] was 3744 RFU, the EC50 [1] was 1.09 µM and the IC50 (human 5-HT2A receptor) was 8.48 µM.

With `[2H]C([2H])([2H])N(CCN1CCc2ccc(OC)cc21)C([2H])([2H])[2H]` [Compound I-70, 2-(6-Methoxyindolin-1-yl)-N, N-bis(methyl-d3) ethan-1-amine] the “RFU@10 μM” value [1] was 303 RFU and the IC50 (human 5-HT2A receptor) was 25.8 µM.

`COc1ccc2c(c1)N(C[C@H]1CCCN1)CC2` [(R)-I-59, (R)-6-Methoxy-1-(pyrrolidin-2-ylmethyl) indoline] was tested, and the “RFU@10 μM” value [1] was 801 RFU, the EC50 [1] was 1.21 µM and the IC50 (human 5-HT2A receptor) was 15.3 µM.

In the case of `[2H]C([2H])([2H])N1CCC[C@@H]1C([2H])([2H])N1CCc2ccccc21` [(R)-I-1, (R)-1-((1-(Methyl-d3)pyrrolidin-2-yl)methyl-d2) indoline], the “RFU@10 μM” value [1] is reported as 386 RFU, the EC50 [1] is reported as 3.55 µM and the IC50 (human 5-HT2A receptor) is reported as 4.53 µM.

With `COc1cccc2c1N(C[C@H]1CCCN1C)CC2` [(R)-I-46, (R)-7-Methoxy-1-((1-methylpyrrolidin-2-yl)methyl) indoline] the “RFU@10 μM” value [1] was 487 RFU, the EC50 [1] was 1.14 µM and the IC50 (human 5-HT2A receptor) was 2.46 µM.

In the case of `COc1ccc2c(c1)N(C[C@H]1CCCN1C)CC2` [(R)-I-58, (R)-6-Methoxy-1-((1-methylpyrrolidin-2-yl)methyl) indoline], the “RFU@10 μM” value [1] is reported as 796 RFU, the EC50 [1] is reported as 0.322 µM and the IC50 (human 5-HT2A receptor) is reported as 6.53 µM.

For `COc1cccc2c1CCN2C[C@H]1CCCN1C` [(R)-I-47, (R)-4-Methoxy-1-((1-methylpyrrolidin-2-yl)methyl) indoline], the “RFU@10 μM” value [1] was 174 RFU and the IC50 (human 5-HT2A receptor) was greater than 30 µM.

`[2H]C([2H])([2H])N1CCC[C@@H]1C([2H])([2H])N1CCc2ccc(OC)cc21` [(R)-I-57, (R)-6-Methoxy-1-((1-(methyl-d3)pyrrolidin-2-yl)methyl-d2) indoline] was tested, and the “RFU@10 μM” value [1] was 749 RFU, the EC50 [1] was 0.422 µM and the IC50 (human 5-HT2A receptor) was 7.96 µM.

`[2H]C([2H])([2H])N(CCN1CCc2ccccc21)C([2H])([2H])[2H]` [Compound I-71, 2-(Indolin-1-yl)-N,N-bis(methyl-d3) ethan-1-amine] was tested, and the “RFU@10 μM” value [1] was 280 RFU and the IC50 (human 5-HT2A receptor) was 15 µM.
